From patent US9144596B2, “Compositions and methods of treating neoplasia” (University of Florida Research Foundation, Inc., priority 2007, dated 2015)
“Also recorded” adds a separate entry of the source.

What was measured:
[1] = biological target: T1, pol-β (Homo sapiens, UniProt P06746); experiment: dRP-lyase activity assay; assay type: biochemical; conditions: 1 nM pol-βwt; various concentrations of test substance
T1 construct: made in house; host or cells: Escherichia coli BL21(DE3)pLysS

[2] = biological target: T1, pol-β; experiment: strand-displacement synthesis, reconstituted in vitro base excision repair assay with 32P-F-DNA; assay type: biochemical; conditions: for pol-β-directed single-nucleotide incorporation: all the concentrations tested; for pol-β-directed strand-displacement synthesis: different concentrations
[3] = biological target: T1, pol-β; experiment: in vitro SN- and LP-BER assay with 32P-U-DNA; assay type: biochemical; conditions: for complete repair of 32P-U-DNA by the SN-BER pathway: absence of Fen-1, DNA ligase I; for complete repair of 32P-U-DNA by the LP-BER pathway: presence of Fen-1, DNA ligase I
[4] = test system: HCT-116(APC+/+) and HCT-116(APC−/−) colon cancer cell lines; experiment: SRB cytotoxicity of the compounds alone (FIGS. 19E and F); assay type: cell-based, human; conditions: up to 100 μM concentrations
Method: After 48 hours, cells were harvested and processed for cytotoxicity determination as described herein. […] Data are the mean±SE of three different estimations.
(§1) The IC50 (the drug concentration needed to prevent cell proliferation by 50%) of TMZ was determined using a sulforhodamine B (SRB) colorimetric assay. This assay relies on the ability of SRB to bind the protein components of cells that have been fixed to tissue culture plates by trichloroacetic acid (TCA) (Vachai V, Kirtikara K. Sulforhodamine B colorimetric assay for cytotoxicity screening. Nat. Proto. 3: […], 2006). Briefly, the HCT-116(APC^+/+) and HCT-116(APC^−/−) were seeded in 96-well plates at a density of 500 cells per well. After 24 hours, while the cells were in the log phase of cell growth, the cells were treated with different concentrations of TMZ for 48 hours. The cells were subsequently fixed with 10% (w/v) of tricholoroacetic acid, washed with double distilled water, and stained with 0.4% SRB. Cells were then repeatedly washed with 1% (v/v) of acetic acid to remove the unbound dye. The protein bound dye was dissolved in 10 mM Tris-base solution (pH 10.5). The developed color was measured at 564 nm. […]
APC blocked base excision repair and sensitized colon cancer cells after TMZ treatment. […] The cellular toxicity was determined by sulforhodamine B (SRB) colorimetric assay as described above. […]

[5] = test system: HCT-116(APC−/−) cells; experiment: sulforhodamine B (SRB) colorimetric cytotoxicity assay; assay type: cell-based, human; conditions: for effect on the cytotoxicity of TMZ: 2 hours pretreatment, then TMZ 48 hours
Method: (§2) The IC50 (the drug concentration needed to prevent cell proliferation by 50%) of TMZ was determined using a sulforhodamine B (SRB) colorimetric assay. This assay relies on the ability of SRB to bind the protein components of cells that have been fixed to tissue culture plates by trichloroacetic acid (TCA) (Vachai V, Kirtikara K. Sulforhodamine B colorimetric assay for cytotoxicity screening. Nat. Proto. 3: […], 2006). Briefly, the HCT-116(APC^+/+) and HCT-116(APC^−/−) were seeded in 96-well plates at a density of 500 cells per well. After 24 hours, while the cells were in the log phase of cell growth, the cells were treated with different concentrations of TMZ for 48 hours. The cells were subsequently fixed with 10% (w/v) of tricholoroacetic acid, washed with double distilled water, and stained with 0.4% SRB. Cells were then repeatedly washed with 1% (v/v) of acetic acid to remove the unbound dye. The protein bound dye was dissolved in 10 mM Tris-base solution (pH 10.5). The developed color was measured at 564 nm. The percentage of cell survival as a function of drug concentration was then plotted to determine the IC50 value. The IC50 of TMZ in HCT-116(APC^+/+) and HCT-116(APC^−/−) cells was 200 and 400 μM, respectively (FIG. 18A). […] This is consistent with the hypothesis that APC-mediated blockage of base excision repair increase d the sensitivity to TMZ in APC^+/+ cells. SRB assays were then used to determine whether TMZ-induced cytotoxicity was correlative to the increased level of APC in HCT-116(APC^+/+) cells.
(§3) APC blocked base excision repair and sensitized colon cancer cells after TMZ treatment. […] The cellular toxicity was determined by sulforhodamine B (SRB) colorimetric assay as described above. […] The cytotoxicity of these compounds was greater in HCT-116(APC^+/+) cells than in HCT-116(APC^−/−) cells (FIG. 19, compare the results of Panel A with B and C with D, respectively).

[6] = test system: HCT-116(APC+/+) cells; experiment: as above; assay type: cell-based, human; conditions: for effect on the cytotoxicity of TMZ: 2 hours pretreatment, then TMZ 48 hours
Method: as §2, §3

[7] = test system: SW480 cells; experiment: SRB cytotoxicity assay, MMR-proficient cells; assay type: cell-based, human
Method: (§4) FIGS. 24A and 24D NSC-124854 enhanced the cytotoxicity of TMZ in both MMR-positive and MMR-negative colon cancer cell lines in culture. […] After 48 hours, cells were harvested and processed for cytotoxicity determination. Data presented are the mean±SE of three different estimations.
as §2

[8] = test system: HCT-116-APC(WT)+ch3 cells; experiment: SRB cytotoxicity assay, MMR-proficient cells; assay type: cell-based, human
Method: as §4, §2

[9] = test system: CACO-2 cells; experiment: SRB cytotoxicity assay, MMR-deficient cells; assay type: cell-based; conditions: Homo sapiens; CACO-2, TMZ alone, 48 hours
Method: (§5) FIGS. 24A and 24D NSC-124854 enhanced the cytotoxicity of TMZ in both MMR-positive and MMR-negative colon cancer cell lines in culture. MMR-proficient [HCT-116-APC(WT)+ch3 and SW480 (Panel 24A and […])] and MMR-deficient [CACO-2 and LoVo (Panel 24C and 24D)] cells were pretreated for 2 hours with 50 μM of NSC-124854 followed by the treatment with different concentrations of TMZ. After 48 hours, cells were harvested and processed for cytotoxicity determination. Data presented are the mean±SE of three different estimations.
as §1, with “SRB.” for “SRB. Cells were then repeatedly washed with 1% (v/v) of acetic acid to remove the unbound dye. The protein bound dye was dissolved in 10 mM Tris-base solution (pH 10.5). The developed color was measured at 564 nm.”

[10] = test system: LoVo cells; experiment: SRB cytotoxicity assay, MMR-deficient cells; assay type: cell-based; conditions: Homo sapiens, TMZ alone, 48 hours
Method: as §5
as §1, with “SRB.” for “SRB. Cells were then repeatedly washed with 1% (v/v) of acetic acid to remove the unbound dye. The protein bound dye was dissolved in 10 mM Tris-base solution (pH 10.5). The developed color was measured at 564 nm.”

[11] = biological target: T1, pol-β; experiment: long patch-base excision repair assay with 32P-F-DNA; assay type: biochemical; conditions: pol-βwt, Fen-1, DNA ligase I; 2 μM APCwt peptide
Method: To determine whether the blockage in the strand-displacement synthesis by the pol-βMut-1 was sufficient to block long patch-base excision repair, a long patch-base excision repair assay was set up as outlined in FIG. 10A. […] This DNA repair was blocked in the presence of 2 μM APCwt peptide, but not with APC(I-A,Y-A) peptide (FIG. 10B, compare lane 5 with 8 for APCwt and with 9-11 for APC(I-A,Y-A), respectively, for the formation of the 63-mer ligated product). […] The 2-nucleotide strand-displacement synthesis by pol-βMut-1 protein was sufficient to carry out long patch-base excision repair in the presence of Fen-1.
To study long patch- and single nucleotide-base excision repair activities, different types of DNA substrates were used. For long patch-base excision repair activity, an AP-site analog (3-hydroxy-2-hydroxymethyltetrahydrofuran, noted as F) was introduced at the 24th position of the 63-mer DNA (5′-[…] CGACA-3′ (SEQ ID NOS 17-18)), which was called F-DNA (27). For making U-DNA, uracil was introduced at the 24th position of 63-mer sense oligonucleotide (5′-[…] GACA-3′ (SEQ ID NO: 19)). Sense strands of F-DNA and U-DNA were 5′-end labeled by [a-^32P]ATP and T4 polynucleotide kinase and purified with a nick-column (GE Healthcare, Piscataway, N.J.). Later they were annealed with the complementary 63-mer oligonucleotide (5′-[…] CTAG-3′ (SEQ ID NO: 20)) at a 1:1 molar ratio. […]

[12] = 32P-U-DNA substrate, dose-dependent

| pol-β-directed dRP-lyase activity [1] | pol-β-directed single-nucleotide incorporation ([2]; 32P-F-DNA substrate) | pol-β-directed strand-displacement synthesis ([2]; 32P-F-DNA substrate) | complete repair of 32P-U-DNA by the SN-BER pathway [3] | complete repair of 32P-U-DNA by the LP-BER pathway [3] | complete DNA repair of F-DNA (63-mer ligated product), LP-BER [11] | Compound | cytotoxicity of the compound alone [4] | effect on the cytotoxicity of TMZ [5] | effect on the cytotoxicity of TMZ ([6]; HCT-116(APC+/+)) | also measured |
| --- | --- | --- | --- | --- | --- | --- | --- | --- | --- | --- |
| did not inhibit | unaffected | dose-dependent decrease |  |  |  | O=C(O)CC(C(=O)O)C(CC(=O)O)C(=O)O (centres unmarked) [CN3] |  |  |  |  |
| successfully blocked |  | dose-dependent decrease | blocked in a dose-dependent manner | blocked in a dose-dependent manner |  | NC1=NC(=O)N(C2CC(O)C(COP(=O)(O)O)O2)C(I)C1 (centres unmarked) [NSC-124854] | very low | increased | increased | Pol-β-mediated 1-nt incorporation [3, 12]: blocked; strand-displacement synthesis in the presence of Fen-1 [3, 12]: blocked; DNA synthesis (1-nt and strand-displacement) of pol-β ([2]; 32P-F-DNA substrate): completely blocked; potency among the four compounds tested, strand-displacement synthesis ([2]; inhibited at lower concentrations): most potent; reduction of the IC50 of TMZ ([7]; SW480, combination of 50 μM of NSC-124584): 2.5 fold; reduction of the IC50 of TMZ ([8]; HCT-116-APC(WT)+ch3, combination of 50 μM of NSC-124584): 2.5 fold |
|  |  |  |  |  |  | Cc1cc(S(=O)(=O)Nc2n[nH]c(Nc3ccc(Cl)cc3)n2)c(S)cc1Cl [NSC-666715] | very low | increased | increased |  |
|  |  |  |  |  |  | Cn1nnc2c(C(N)=O)ncn2c1=O [TMZ, Temozolomide, reference compound] |  |  |  | IC50 ([5]; Homo sapiens, 48 hours, SRB, read-out: IC50 of TMZ): 400 µM; IC50 ([6]; Homo sapiens, HCT-116(APC+/+), 48 hours, SRB, read-out: IC50 of TMZ): 200 µM; sensitivity to TMZ of HCT-116(APC+/+) versus HCT-116(APC−/−) cells ([6]; ratio of IC50): 2 times; IC50 ([7]; Homo sapiens, SW480, TMZ alone, 48 hours): 120 µM; IC50 ([8]; Homo sapiens, HCT-116-APC(WT)+ch3, TMZ alone, 48 hours): 100 µM; IC50 [9]: 364 µM; IC50 [10]: 677 µM |
| did not show any effect | unaffected | not | not | not | not | APC(I-A,Y-A): mutant APC peptide 1250-KVSSINQETAQTACVEDTPI-1269, Ile1259 and Tyr1262 replaced with alanine (UniProt P25054 1250-1269, looked up, variant I1259A Y1262A) [reference compound] |  |  |  |  |

| Compound | pol-β-directed dRP-lyase activity [1] | pol-β-directed single-nucleotide incorporation ([2]; 32P-F-DNA substrate) | pol-β-directed strand-displacement synthesis ([2]; 32P-F-DNA substrate) | complete repair of 32P-U-DNA by the SN-BER pathway [3] | complete repair of 32P-U-DNA by the LP-BER pathway [3] | complete DNA repair of F-DNA (63-mer ligated product), LP-BER [11] | cytotoxicity of the compound alone [4] | effect on the cytotoxicity of TMZ [5] | effect on the cytotoxicity of TMZ ([6]; HCT-116(APC+/+)) | also measured |
| --- | --- | --- | --- | --- | --- | --- | --- | --- | --- | --- |
| APCwt: wild-type APC peptide of 20 amino acids, 1250-KVSSINQETIQTYCVEDTPI-1269, DNA repair inhibitory (DRI)-domain (UniProt P25054 1250-1269, looked up, fragment) | blocked | unaffected | dose-dependent decrease; also recorded: blocked | blocked | blocked | blocked |  |  |  |  |
